In ChEMBL document CHEMBL1201862, “PubChem BioAssay data set” (2004):
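Briefly, cells in 96-well plates were exposed to five compound concentrations for 48 h, and endpoints were estimated by linear interpolation. GI50: concentration for 50% inhibition of growth.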 Activity calls are given as the source filed them. Cut-off read from the data, not from the text of the source: active = GI50 up to about 1.1 µM and inactive = higher.

Legend:
Assay in all cases: NCI tumour cell line growth inhibition, 48 h
SNB-75 = system: SNB-75
SN12C = system: SN12C
SK-OV-3 = system: SK-OV-3
RXF 631 = system: RXF 631
SF-539 = system: SF-539
UACC-62 = system: UACC-62
COLO 205 = system: COLO 205
NCI-H460 = system: NCI-H460
K562 = system: K562
CCRF-CEM = system: CCRF-CEM
SK-MEL-2 = system: SK-MEL-2
CAKI-1 = system: CAKI-1
KM-20L2 = system: KM-20L2
HCC 2998 = system: HCC 2998
SF-268 = system: SF-268
XF498 = system: XF498
A549 = system: A549
RPMI-8226 = system: RPMI-8226
SK-MEL-28 = system: SK-MEL-28
OVCAR-4 = system: OVCAR-4
SW-620 = system: SW-620
LOX IMVI = system: LOX IMVI
Malme-3M = system: Malme-3M
DLD-1 = system: DLD-1
KM12 = system: KM12
MOLT-4 = system: MOLT-4
M14 = system: M14
EKVX = system: EKVX
SNB-78 = system: SNB-78
LXFL 529 = system: LXFL 529
TK-10 = system: TK-10
OVCAR-5 = system: OVCAR-5
HT-29 = system: HT-29
UACC-257 = system: UACC-257
HL-60 = system: HL-60
M19-MEL = system: M19-MEL
DMS-273 = system: DMS-273
A498 = system: A498
HCT-15 = system: HCT-15
ACHN = system: ACHN
SK-MEL-5 = system: SK-MEL-5
786-0 = system: 786-0
NCI-H522 = system: NCI-H522
HOP-92 = system: HOP-92
UO-31 = system: UO-31
OVCAR-8 = system: OVCAR-8
SF-295 = system: SF-295
SNB-19 = system: SNB-19
NCI-H23 = system: NCI-H23
NCI-H226 = system: NCI-H226
RXF 393 = system: RXF 393
OVCAR-3 = system: OVCAR-3
HOP-62 = system: HOP-62
IGROV-1 = system: IGROV-1
DMS-114 = system: DMS-114
HCT-116 = system: HCT-116
U-251 = system: U-251
SR = system: SR
HOP-18 = system: HOP-18

CC1(c2cccc(N)c2)C2C(=O)NC(=O)C1C(=O)NC2=O (stereo unspecified)
GI50 (SNB-75): 28.1 µM (inactive)
GI50 (SN12C): 29 µM (inactive)
GI50 (SK-OV-3): 23.9 µM (inactive)
GI50 (RXF 631): > 100 µM (inactive)
GI50 (SF-539): 28.6 µM (inactive)
GI50 (UACC-62): 33.3 µM (inactive)
GI50 (COLO 205): 23.7 µM (inactive)
GI50 (NCI-H460): 33 µM (inactive)
GI50 (K562): 24.2 µM (inactive)
GI50 (CCRF-CEM): 22.4 µM (inactive)
GI50 (SK-MEL-2): 24.3 µM (inactive)
GI50 (CAKI-1): 61.9 µM (inactive)
GI50 (KM-20L2): 27.6 µM (inactive)
GI50 (HCC 2998): 52.2 µM (inactive)
GI50 (SF-268): 35.7 µM (inactive)
GI50 (XF498): 21.8 µM (inactive)
GI50 (A549): 33.9 µM (inactive)
GI50 (RPMI-8226): 16 µM (inactive)
GI50 (SK-MEL-28): 38.6 µM (inactive)
GI50 (OVCAR-4): 36.7 µM (inactive)
GI50 (SW-620): 34 µM (inactive)
GI50 (LOX IMVI): 28.1 µM (inactive)
GI50 (Malme-3M): 31.1 µM (inactive)
GI50 (DLD-1): 34.7 µM (inactive)
GI50 (KM12): 23.6 µM (inactive)
GI50 (MOLT-4): 18 µM (inactive)
GI50 (M14): 36.7 µM (inactive)
GI50 (EKVX): 45 µM (inactive)
GI50 (SNB-78): 51.2 µM (inactive)
GI50 (LXFL 529): 32.2 µM (inactive)
GI50 (TK-10): 50.9 µM (inactive)
GI50 (OVCAR-5): 38.6 µM (inactive)
GI50 (HT-29): 29.4 µM (inactive)
GI50 (UACC-257): 37.9 µM (inactive)
GI50 (HL-60): 19.6 µM (inactive)
GI50 (M19-MEL): 37.2 µM (inactive)
GI50 (DMS-273): 25.5 µM (inactive)
GI50 (A498): 23.4 µM (inactive)
GI50 (HCT-15): 36.2 µM
GI50 (ACHN): 28.2 µM (inactive)
GI50 (SK-MEL-5): 18.5 µM (inactive)
GI50 (786-0): 38.3 µM (inactive)
GI50 (NCI-H522): 19.7 µM (inactive)
GI50 (HOP-92): 22.9 µM (inactive)
GI50 (UO-31): 22.3 µM (inactive)
GI50 (OVCAR-8): 35.9 µM (inactive)
GI50 (SF-295): 22.4 µM (inactive)
GI50 (SNB-19): 29.2 µM (inactive)
GI50 (NCI-H23): 22.1 µM (inactive)
GI50 (NCI-H226): 28.1 µM (inactive)
GI50 (RXF 393): 26.1 µM (inactive)
GI50 (OVCAR-3): 21.7 µM (inactive)
GI50 (HOP-62): 32.2 µM (inactive)
GI50 (IGROV-1): 44.3 µM (inactive)
GI50 (DMS-114): 27.5 µM (inactive)

Cc1c(/C=C2\CC/C(=C\c3[nH]c(C(=O)OC(C)(C)C)c(C)c3C)C2=O)[nH]c(C(=O)OC(C)(C)C)c1C
GI50 (SNB-75): 60.1 µM (inactive)
GI50 (SN12C): > 100 µM (inactive)
GI50 (SK-OV-3): > 100 µM (inactive)
GI50 (HCT-116): > 100 µM (inactive)
GI50 (SF-539): > 100 µM (inactive)
GI50 (UACC-62): > 100 µM (inactive)
GI50 (U-251): > 100 µM (inactive)
GI50 (COLO 205): > 100 µM (inactive)
GI50 (NCI-H460): > 100 µM (inactive)
GI50 (K562): > 100 µM (inactive)
GI50 (CCRF-CEM): > 100 µM (inactive)
GI50 (SK-MEL-2): > 100 µM (inactive)
GI50 (CAKI-1): > 100 µM (inactive)
GI50 (KM-20L2): > 100 µM (inactive)
GI50 (HCC 2998): > 100 µM (inactive)
GI50 (SF-268): > 100 µM (inactive)
GI50 (XF498): > 100 µM (inactive)
GI50 (A549): > 100 µM (inactive)
GI50 (RPMI-8226): > 100 µM (inactive)
GI50 (OVCAR-4): > 100 µM (inactive)
GI50 (SW-620): > 100 µM (inactive)
GI50 (LOX IMVI): > 100 µM (inactive)
GI50 (Malme-3M): > 100 µM (inactive)
GI50 (DLD-1): > 100 µM (inactive)
GI50 (KM12): > 100 µM (inactive)
GI50 (MOLT-4): > 100 µM (inactive)
GI50 (M14): > 100 µM (inactive)
GI50 (EKVX): > 100 µM (inactive)
GI50 (SNB-78): > 100 µM (inactive)
GI50 (LXFL 529): > 100 µM (inactive)
GI50 (TK-10): > 100 µM (inactive)
GI50 (OVCAR-5): > 100 µM (inactive)
GI50 (HT-29): > 100 µM (inactive)
GI50 (UACC-257): > 100 µM (inactive)
GI50 (HL-60): > 100 µM (inactive)
GI50 (M19-MEL): > 100 µM (inactive)
GI50 (DMS-273): > 100 µM (inactive)
GI50 (A498): > 100 µM (inactive)
GI50 (HCT-15): > 100 µM
GI50 (SR): > 100 µM (inactive)
GI50 (SK-MEL-5): > 100 µM (inactive)
GI50 (786-0): > 100 µM (inactive)
GI50 (NCI-H522): > 100 µM (inactive)
GI50 (HOP-92): > 100 µM (inactive)
GI50 (UO-31): > 100 µM (inactive)
GI50 (OVCAR-8): > 100 µM (inactive)
GI50 (SF-295): > 100 µM (inactive)
GI50 (SNB-19): > 100 µM (inactive)
GI50 (NCI-H23): > 100 µM (inactive)
GI50 (NCI-H226): > 100 µM (inactive)
GI50 (RXF 393): > 100 µM (inactive)
GI50 (OVCAR-3): > 100 µM (inactive)
GI50 (HOP-62): > 100 µM (inactive)
GI50 (IGROV-1): > 100 µM (inactive)
GI50 (DMS-114): > 100 µM (inactive)
GI50 (HOP-18): > 100 µM (inactive)
